Here are results for 89 compounds from the Bradley open melting point set (2014).

“And” between values parts separate entries of the source, which are not always exact repeats. Equal values may be shown once.

Turning to `Cc1cccc(C)c1O` [2,6-Dimethylphenol], the melting point turned out to be 49 °C.

For the compound `CC(=O)Oc1cccc(C)c1` [m-tolyl_acetate], the melting point came out at 12 °C.

`O=Cc1ccc(O)cc1` [4-hydroxybenzaldehyde] yielded a melting point of 118 °C.

Consider `COc1ncccc1B(O)O` [2-methoxypyridine-3-boronic acid], for which the melting point amounted to 137 °C.

Consider `CC(=O)OC[C@H]1O[C@@H](S)[C@H](OC(C)=O)[C@@H](OC(C)=O)[C@@H]1OC(C)=O` [1-thio-beta-D-glucose tetraacetate], for which the melting point was 116 °C.

`Nc1cccc(N)n1` [2,6-diaminopyridine] displayed a melting point of 122 °C.

Regarding `CC1(c2ccccc2)OC(C(=O)O)=CC1=O` (centres undefined) [acifran], the melting point came to 176 °C.

For `COc1ccc(-c2nnn[nH]2)cc1` [5-(4-methoxyphenyl)-1h-tetrazole], the melting point came out at 237 °C.

Compound `COc1cccc(C(CC(=O)O)NC(=O)OC(C)(C)C)c1` (centres undefined) [3-(boc-amino)-3-(3-methoxyphenyl)propionic acid] displayed a melting point of 82 °C.

The compound `C[C@@H](O)[C@H](N)C(=O)O` [L-Threonine] showed a melting point of 256 °C.

`Cc1cccc(O)c1` [M-Cresol]: the melting point stood at 11.8 °C.

`OCC(O)COc1ccc(Cl)cc1` (centres undefined) [3-(4-chlorophenoxy)-1,2-propanediol] registered a melting point of 80 °C.

Regarding `CC(=O)c1ccc(C)cc1` [4'-methylacetophenone], the melting point was -19 °C.

For `C[C@H](Cc1ccc(O)c(O)c1)[C@@H](C)Cc1ccc(O)c(O)c1`, the melting point was determined as 180 °C.

For the compound `C#CCCO` [3-butyn-1-ol], the melting point was -63 °C.

Take `c1ccc2c(c1)c1ccccc1c1ccccc21` [triphenylene]: the melting point is 199 °C and 196 °C and 197 °C.

`CCCCCCCCCc1ccc(O)cc1` [4-n-nonylphenol] gave a melting point of 45 °C.

Regarding `O=C(O)c1cccnc1` [nicotinic acid], the melting point worked out at 237 °C.

`COC(=O)c1cccc(N=C=O)c1` [3-(methoxycarbonyl)phenyl isocyanate] displayed a melting point of 37 °C.

`CC(=O)Nc1ccc(O)cc1` [acetaminophen] came in with a melting point of 170 °C.

`O=c1ncn2nc(Sc3ccccc3)ccc2c1-c1c(Cl)cccc1Cl`: the melting point worked out at 264 °C.

For `CCC1(CC)C(=O)NC(=O)NC1=O` [5,5-diethylbarbiturate], the melting point was 190 °C.

Consider `Ic1ccccc1` [iodobenzene], for which the melting point was -31 °C.

In turn, `C=CC(=O)OC` [Methyl acrylate] showed a melting point of -75 °C.

With `CCCCc1ccccc1` [butylbenzene], the melting point was -88 °C.

In turn, `CC(Oc1cc(Cl)c(Cl)cc1Cl)C(=O)O` (centres undefined) [2-(2,4,5-trichlorophenoxy)propionic acid] registered a melting point of 178 °C.

As for `COC(=O)c1cc(C)[nH]n1` [1H-pyrazole-3-carboxylic acid, 5-methyl-, methyl ester], the melting point is 107 °C.

With `O=C4\C=C3/[C@]([C@H]2CC[C@]1([C@@H](CC[C@@]1(O)C)[C@@H]2CC3)C)(C)CC4` [17-methyltestosterone], the melting point came to 164 °C.

Regarding `OCc1ccc(O)cc1` [4-hydroxybenzyl alcohol], the melting point worked out at 118 °C.

The compound `O=C(O)c1ccccc1C(=O)Nc1cccc2ccccc12` [2-(1-Naphthylcarbamoyl)benzoic acid] showed a melting point of 203 °C.

`O=C1Cc2c1cccc2[N+](=O)[O-]` [2-nitrobicyclo[4.2.0]octa-1,3,5-trien-7-one] displayed a melting point of 116 °C.

Take `CC(=O)Nc1ccc(O)cc1` [Acetaminophen]: the melting point turned out to be 170 °C.

`CCCCNC(=S)NCCCC` [N,N'-di-n-butylthiourea] yielded a melting point of 66 °C.

`CC[C@H](C)[C@H](NC(=O)OCC1c2ccccc2-c2ccccc21)C(=O)O` [N-fmoc-L-isoleucine] came in with a melting point of 147 °C.

With `O=C(Nc1ccccc1)c1ccccc1` [benzanilide], the melting point came out at 164 °C.

`c1ccc2c(c1)[nH]c1ccccc12` [Carbazole] had a melting point of 247 °C.

For `Cc1ccc(C(=O)O)cc1` [p-toluic_acid], the melting point amounted to 182 °C.

The compound `C=Cc1ccc(C)cc1` [4-methylstyrene] had a melting point of -34 °C.

As for `Cc1ccccc1-n1c(C)nc2ccccc2c1=O` [Methaqualone], the melting point came to 113 °C.

The compound `O=[N+]([O-])c1cc(C(F)(F)F)cc([N+](=O)[O-])c1Cl` [2-Chloro-1,3-dinitro-5-(trifluoromethyl)benzene] had a melting point of 57 °C.

Compound `CC=C(/C)CCC` [3-methyl-trans-2-hexene] gave a melting point of -129 °C.

`O=C(O)c1c(F)cnc(F)c1F` [2,3,5-trifluoropyridine-4-carboxylic acid] came in with a melting point of 110 °C.

For `OB(O)c1cc(F)ccc1OCc1ccccc1` [2-benzyloxy-5-fluorobenzeneboronic acid], the melting point was 119 °C.

On to `Cc1ccc([N+](=O)[O-])c(O)c1` [5-methyl-2-nitrophenol], for which the melting point is 55 °C.

`O=C(O)c1ccc(O)cc1` [4-Hydroxybenzoic acid]: the melting point was found to be 216 °C.

In turn, `Cc1cc(C)cc(N)c1` [3,5-dimethylaniline] yielded a melting point of 10 °C.

Regarding `NC(=O)CS(=O)C(c1ccccc1)c1ccccc1` (centres undefined) [Modafinil], the melting point stood at 165 °C.

`CC(C)[C@@H](NC(=O)OC(C)(C)C)C(=O)O` [N-boc-D-valine] gave a melting point of 78 °C.

In turn, `CC(=O)OC1CCC2C3CCC4CC(CC(=O)O)CCC4(C)C3CCC12C` (centres undefined) [[17-(acetyloxy)androstan-3-yl]acetic acid] registered a melting point of 152 °C.

Take `COc1ccc(C(=O)O)cc1` [4-methoxybenzoic acid]: the melting point came out at 185 °C.

With `Oc1ccc(Br)cc1-c1ccno1` [4-bromo-2-(5-isoxazolyl)phenol], the melting point came to 211 °C.

For the compound `O=[N+]([O-])c1ccc(O)c([N+](=O)[O-])c1` [2,4-dinitrophenol], the melting point stood at 107 °C.

The compound `CCOC(=O)c1cc(C)n(-c2ccc(F)cc2)c1C` [OSM-S-03] had a melting point of 64.5 °C.

The compound `C#C[C@]1(O)CC[C@H]2[C@@H]3CCc4cc(O)ccc4[C@H]3CC[C@@]21C` [Ethinyl Estradiol] yielded a melting point of 183 °C.

For the compound `CN(C)c1ccc(C=C/C(=N\Nc2ccccc2)c2ccccc2)cc1`, the melting point is 128 °C.

For the compound `CCCCCBr` [1-bromopentane], the melting point was -95 °C.

In turn, `CCCCS` [Butane-1-thiol] had a melting point of -116 °C.

Compound `C=C(C)Cn1c(N)cc(=O)n(C)c1=O` [amisometradine] came in with a melting point of 175 °C.

In turn, `Nc1ccc(I)cc1` [4-iodoaniline] displayed a melting point of 63 °C.

`CC12CCC(/C(=C/N(O)c3ccccc3)C1=O)C2(C)C` (centres undefined) came in with a melting point of 107 °C.

Consider `NC1=C(c2ccccc2)C(=O)c2ccccc21` [3-amino-2-phenylindenone], for which the melting point is 271 °C.

Turning to `COc1cc(OC)c2c(c1Cl)O[C@]1(C2=O)C(OC)CC(=O)C[C@H]1C` (some centres undefined) [Griseofulvin], the melting point was found to be 220 °C.

Compound `OCCNc1ccccc1` [N-phenylethanolamine] came in with a melting point of -30 °C.

`CCCCCCCCCCC(O)CCCCCCCCCC` [11-heneicosanol] had a melting point of 72 °C.

Regarding `COC(=O)CCCCCCCCC(=O)OC` [dimethyl_sebacate], the melting point worked out at 30 °C.

`CC1CCC(C(C)C)C(OC(=O)/C(=C/c2ccccc2)Cc2ccccc2)C1` (centres undefined): the melting point was 65 °C.

As for `CC12CCC(=O)CC1CCC1C2CCC2(C)C(=O)CCC12O` (centres undefined) [14-hydroxyandrostane-3,17-dione], the melting point came to 199 °C.

Regarding `C=C(C)c1ccccc1` [alpha-methylstyrene], the melting point was -23 °C.

As to `CC(=O)Nc1ccccc1O` [2-acetamidophenol], the melting point was 207 °C.

The compound `CN(C)/C=C/[N+](=O)[O-]` [1-dimethylamino-2-nitroethylene] registered a melting point of 103 °C.

The compound `Cc1ccc(C(=O)c2nn(-c3ccccc3)/c(=N\N=C\c3ccco3)s2)cc1` displayed a melting point of 114 °C.

In turn, `c1ccc2ccccc2c1` [Naphthalene] displayed a melting point of 82 °C.

`CCSc1ncccc1C(=O)Cl` [2-(ethylthio)nicotinoyl chloride] displayed a melting point of 51 °C.

Compound `COC(=O)c1ccccc1S(=O)(=O)Cl` [methyl 2-(chlorosulfonyl)benzoate] yielded a melting point of 62 °C.

Turning to `OB(O)c1cc(F)c(F)cc1F` [2,4,5-trifluorobenzeneboronic acid], the melting point turned out to be 100 °C.

Compound `O=C(CC(=O)c1ccccc1O)c1ccccc1` [benzoyl(2-hydroxybenzoyl)methane] gave a melting point of 120 °C.

`CCCSC` [methyl n-propyl sulfide] yielded a melting point of -113 °C.

Compound `CCOc1ccc(NC(=O)CC(C)O)cc1` (centres undefined) [bucetin] registered a melting point of 160 °C.

The compound `C/C=C\Br` [cis-1-bromo-1-propene] yielded a melting point of -113 °C.

Turning to `COC(=O)c1ccc(O)cc1` [methyl-p-hydroxybenzoate], the melting point was 131 °C.

Take `CCCCCCCCC=O` [Nonanal]: the melting point was -18 °C.

As to `C[C@@H]1CC=CC=CC=CC=C[C@H](OC2O[C@H](C)[C@@H](O)[C@H](N)[C@@H]2O)C[C@@H]2O[C@](O)(C[C@@H](O)C[C@H]3O[C@@H]3C=CC(=O)O1)C[C@H](O)[C@H]2C(=O)O` (some centres undefined) [Natamycin], the melting point was 290 °C.

`NCCCNCCCCNCCCN` [spermine]: the melting point came to 29 °C.

The compound `OB(O)c1ccc(OCc2ccccc2)c(F)c1` [4-benzyloxy-3-fluorobenzeneboronic acid] had a melting point of 130 °C.

As for `Cn1nc(-c2ccccc2)cc1N` [5-amino-1-methyl-3-phenyl-1h-pyrazole], the melting point amounted to 127 °C.

For the compound `OCc1cccc(CO)c1` [1,3-benzenedimethanol], the melting point came out at 58 °C.

In turn, `O=C1C(CCS(=O)c2ccccc2)C(=O)N(c2ccccc2)N1c1ccccc1` (centres undefined) [Sulfinpyrazone] gave a melting point of 136 °C.

With `CCCOC1CCC2C3CCC4=CC(O)CCC4(C)C3CCC12C` (centres undefined) [17-propoxyandrost-4-en-3-ol], the melting point was found to be 125 °C.

`O=C(Cl)c1ccc(Cl)cc1Cl` [2,4-dichlorobenzoyl chloride] showed a melting point of 18 °C.

What is called melting point is the temperature, or range, at which the solid turns liquid.
